The target of test [1] is T1, SUMO-activating enzyme (Homo sapiens, UniProt Q9UBT2). The experiment in a line: blockers of SAE1/SAE2–UBC9 SUMO transfer – biochemical, HTRF, uHTS, primary screen (AID 2006). Format: protein-complex assay. A general note: In TR-FRET formats the signal depends on donor and acceptor labels being close together.
The target in test [2] is Serine/threonine-protein phosphatase (Homo sapiens, UniProt Q9BPW0). The experiment in a line: inhibition of protein phosphatase 5 activity – biochemical, fluorescence, dose response (AID 2395).
The target of test [3] is T1, SUMO-activating enzyme. Kind of test: blockers of UBC9-mediated SUMO conjugation – biochemical, AlphaScreen, SUMOylation inhibitor project, confirmation (AID 2018). The format is functional. On the technique in general: Bead proximity is the source of the signal in Alpha formats.
The target in test [4] is T2, Caspase-3 (Homo sapiens, UniProt P42574).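 Further: Dose-response selectivity test against caspase-3 for candidate inhibitors of sentrin-specific proteases (SENPs).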
T2 sequence (P42574 whole entry): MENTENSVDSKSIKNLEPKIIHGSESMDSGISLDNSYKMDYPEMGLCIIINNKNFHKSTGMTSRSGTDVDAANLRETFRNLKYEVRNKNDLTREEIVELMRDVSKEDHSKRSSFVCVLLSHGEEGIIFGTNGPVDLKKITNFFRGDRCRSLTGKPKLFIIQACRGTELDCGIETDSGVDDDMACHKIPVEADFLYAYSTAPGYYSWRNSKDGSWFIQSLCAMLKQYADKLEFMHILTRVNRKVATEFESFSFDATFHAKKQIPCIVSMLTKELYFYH
Format: functional.

The test system of test [5] is Vero. Kind of test: viability of Vero cells under compound – cytotoxicity control for flavivirus capping enzyme inhibitors (AID 588742). Format: functional. Conditions: Chlorocebus sabaeus.
For test [6], the system named is BJ. The experiment in a line: growth inhibition of engineered Ras-driven BJ cells – cell-based, alamar blue fluorescence, cherrypicked samples, dose response (AID 2631).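 Further: confirmatory dose-response assay in RAS-dependent BJ fibroblasts engineered with TERT, LT and ST, with cytotoxicity read by fluorescence.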 The format is functional. Conditions: Homo sapiens.
For test [7], the target named is Luciferin 4-monooxygenase (Photinus pyralis, UniProt P08659). The experiment in a line: inhibition of purified Photinus pyralis luciferase – biochemical, luminescence, dose response (AID 1891).
The nature of test [8]: Luminescence Cell-Based Dose Response HTS to Identify Inhibitors of 5'UTR Stem-Loop Driven Prion Protein mRNA Translation in H4 Neuroglioblastoma Cells. [Related pubchem assays: 1827 (Project Summary), 1813 (Primary HTS)]. Format: functional.
For test [9], the target named is T3, Streptokinase A (Streptococcus pyogenes serotype M1, UniProt P10520).
T3 sequence (P10520 whole entry): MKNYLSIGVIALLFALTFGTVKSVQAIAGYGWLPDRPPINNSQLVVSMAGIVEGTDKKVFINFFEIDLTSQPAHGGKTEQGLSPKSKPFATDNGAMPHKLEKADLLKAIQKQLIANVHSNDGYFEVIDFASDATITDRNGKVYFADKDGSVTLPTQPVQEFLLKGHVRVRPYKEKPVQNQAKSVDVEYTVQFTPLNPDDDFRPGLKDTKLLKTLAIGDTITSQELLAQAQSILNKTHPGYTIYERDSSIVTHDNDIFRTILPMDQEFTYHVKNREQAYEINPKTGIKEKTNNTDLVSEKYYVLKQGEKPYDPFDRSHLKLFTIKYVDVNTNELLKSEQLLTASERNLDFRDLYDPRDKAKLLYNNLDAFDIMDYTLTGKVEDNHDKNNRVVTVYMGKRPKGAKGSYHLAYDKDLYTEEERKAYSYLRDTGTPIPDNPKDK
The experiment in a line: viability-normalized secreted streptokinase activity reduction – plasminogen activation absorbance, OD405, dose response (AID 1914).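 Further: secreted streptokinase activity via plasminogen activation per viability signal from cell pellet.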 The format is functional, Streptococcus pyogenes M1 GAS.

Test [10] concerns the target T4, Mitochondrial peptide methionine sulfoxide reductase (Bos taurus, UniProt P54149).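 Further: absorbance read-out, biochemical high-throughput dose-response screen for MsrA inhibitors, confirmatory; recombinant bovine MsrA coupled to E. coli TrxB with NADPH and selenocystamine; potency is for inhibitors of MsrA activity on DMSO substrate.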
T4 sequence (P54149 whole entry): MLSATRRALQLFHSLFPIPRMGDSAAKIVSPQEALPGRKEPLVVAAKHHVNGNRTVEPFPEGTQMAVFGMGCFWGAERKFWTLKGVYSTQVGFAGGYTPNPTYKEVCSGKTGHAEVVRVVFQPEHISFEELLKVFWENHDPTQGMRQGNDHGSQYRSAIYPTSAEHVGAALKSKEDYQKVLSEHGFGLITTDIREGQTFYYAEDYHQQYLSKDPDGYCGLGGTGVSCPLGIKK
The format is functional.

In test [11] the target is Inhibitor of nuclear factor kappa-B kinase subunit alpha (Homo sapiens, UniProt O15111). The format is functional.
The target in test [12] is Serine/threonine-protein kinase PAK 1 (Homo sapiens, UniProt Q13153). The format is functional.
In test [13] the target is Tyrosine-protein kinase ITK/TSK (Homo sapiens, UniProt Q08881). The format is functional.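 Further: affinity for ITK measured as one member of a broad kinase panel profiling binding across the kinome.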
In test [14] the target is Macrophage colony-stimulating factor 1 receptor (Homo sapiens, UniProt P07333). Format: functional.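 Further: value comes from the Navigating the Kinome screening panel, CSF1R member.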
Test [15] concerns the target Calcium/calmodulin-dependent protein kinase type 1 (Homo sapiens, UniProt Q14012). Format: functional.
Test [16] concerns the target Interleukin-1 receptor-associated kinase 4 (Homo sapiens, UniProt Q9NWZ3). Format: functional.
Test [17] has as its target Tyrosine-protein kinase ABL1 (Homo sapiens, UniProt P00519). The format is functional.
The target in test [18] is Serine/threonine-protein kinase BRSK1 (Homo sapiens, UniProt Q8TDC3). The format is functional.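 Further: measured within a kinome-wide kinase panel, with the target listed as KIAA1811.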
Test [19] addresses Homeodomain-interacting protein kinase 2 (Homo sapiens, UniProt Q9H2X6). The format is functional.
For test [20], the target named is Protein kinase C delta type (Homo sapiens, UniProt Q05655). The format is functional.
For test [21], the target named is Serine/threonine-protein kinase Chk2 (Homo sapiens, UniProt O96017). The format is functional.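 Further: CHEK2 entry within a kinome-wide screening panel.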
In test [22] the target is Protein-tyrosine kinase 6 (Homo sapiens, UniProt Q13882). Format: functional.
Test [23] concerns the target MAP kinase-activated protein kinase 3 (Homo sapiens, UniProt Q16644). The format is functional.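 Further: value comes from a kinome-wide profiling panel in which MAPKAPK3 is one of the panel members.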
The target in test [24] is Testis-specific serine/threonine-protein kinase 2 (Homo sapiens, UniProt Q96PF2). The format is functional.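 Further: part of the Navigating the Kinome panel, target entry STK22B.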
The target of test [25] is Serine/threonine-protein kinase DCLK1 (Homo sapiens, UniProt O15075). Format: functional.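 Further: affinity for DCLK1 (listed as DCAMKL1) measured as one member of a kinome-wide kinase profiling panel.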
The target of test [26] is Homeodomain-interacting protein kinase 4 (Homo sapiens, UniProt Q8NE63). The format is functional.
Test [27] concerns the target Insulin receptor (Homo sapiens, UniProt P06213). The format is functional.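 Further: insulin receptor kinase tested as one member of a kinome-wide kinase panel.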
For test [28], the target named is Glycogen synthase kinase-3 alpha (Homo sapiens, UniProt P49840). The format is functional.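 Further: GSK3A result taken from a broad kinome-wide kinase panel.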
In test [29] the target is Tyrosine-protein kinase Lyn (Homo sapiens, UniProt P07948). The format is functional.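 Further: lyn as one member of a kinase panel.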
In test [30] the target is Protein kinase C gamma type (Homo sapiens, UniProt P05129). The format is functional.
Test [31] concerns the target Testis-specific serine/threonine-protein kinase 1 (Homo sapiens, UniProt Q9BXA7). Format: functional.
The target of test [32] is Cyclin-dependent kinase 5 (Homo sapiens, UniProt Q00535). The format is functional.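 Further: CDK5 measured as one member of a kinase profiling panel.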

We go through 5 compounds from ChEMBL document CHEMBL1201862, “PubChem BioAssay data set” (2004).

SMILES strings stand for the structures. Active and inactive are the calls of the source.

T1 sequence (Q9UBE0 whole entry): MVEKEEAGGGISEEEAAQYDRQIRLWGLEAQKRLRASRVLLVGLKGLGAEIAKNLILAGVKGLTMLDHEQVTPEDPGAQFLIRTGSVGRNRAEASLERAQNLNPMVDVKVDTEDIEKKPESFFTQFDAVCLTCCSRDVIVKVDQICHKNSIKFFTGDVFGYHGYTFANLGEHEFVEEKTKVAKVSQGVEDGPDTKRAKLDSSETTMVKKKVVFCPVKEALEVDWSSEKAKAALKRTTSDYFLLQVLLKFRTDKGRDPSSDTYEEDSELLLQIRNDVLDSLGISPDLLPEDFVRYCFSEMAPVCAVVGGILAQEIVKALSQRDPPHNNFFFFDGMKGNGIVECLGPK
T1 sequence (Q9UBT2 whole entry): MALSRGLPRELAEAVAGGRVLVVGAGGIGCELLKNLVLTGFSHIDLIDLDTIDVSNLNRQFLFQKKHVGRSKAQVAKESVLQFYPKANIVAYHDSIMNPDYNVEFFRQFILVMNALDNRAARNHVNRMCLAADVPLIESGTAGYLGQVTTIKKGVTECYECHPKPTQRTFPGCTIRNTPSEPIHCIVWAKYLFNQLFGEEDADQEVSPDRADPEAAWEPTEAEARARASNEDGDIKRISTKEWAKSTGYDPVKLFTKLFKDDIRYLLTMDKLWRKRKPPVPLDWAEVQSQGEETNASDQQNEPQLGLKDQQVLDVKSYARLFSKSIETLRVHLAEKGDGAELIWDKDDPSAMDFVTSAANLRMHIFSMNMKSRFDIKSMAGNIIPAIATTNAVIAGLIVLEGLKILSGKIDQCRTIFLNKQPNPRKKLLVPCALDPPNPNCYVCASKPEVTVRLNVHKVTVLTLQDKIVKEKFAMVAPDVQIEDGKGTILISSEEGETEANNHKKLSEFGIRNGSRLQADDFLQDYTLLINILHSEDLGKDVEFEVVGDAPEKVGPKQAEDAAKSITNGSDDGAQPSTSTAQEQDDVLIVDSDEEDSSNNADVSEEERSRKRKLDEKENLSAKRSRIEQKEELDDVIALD
Sequence of Insulin receptor (P06213 28-758 limits assumed): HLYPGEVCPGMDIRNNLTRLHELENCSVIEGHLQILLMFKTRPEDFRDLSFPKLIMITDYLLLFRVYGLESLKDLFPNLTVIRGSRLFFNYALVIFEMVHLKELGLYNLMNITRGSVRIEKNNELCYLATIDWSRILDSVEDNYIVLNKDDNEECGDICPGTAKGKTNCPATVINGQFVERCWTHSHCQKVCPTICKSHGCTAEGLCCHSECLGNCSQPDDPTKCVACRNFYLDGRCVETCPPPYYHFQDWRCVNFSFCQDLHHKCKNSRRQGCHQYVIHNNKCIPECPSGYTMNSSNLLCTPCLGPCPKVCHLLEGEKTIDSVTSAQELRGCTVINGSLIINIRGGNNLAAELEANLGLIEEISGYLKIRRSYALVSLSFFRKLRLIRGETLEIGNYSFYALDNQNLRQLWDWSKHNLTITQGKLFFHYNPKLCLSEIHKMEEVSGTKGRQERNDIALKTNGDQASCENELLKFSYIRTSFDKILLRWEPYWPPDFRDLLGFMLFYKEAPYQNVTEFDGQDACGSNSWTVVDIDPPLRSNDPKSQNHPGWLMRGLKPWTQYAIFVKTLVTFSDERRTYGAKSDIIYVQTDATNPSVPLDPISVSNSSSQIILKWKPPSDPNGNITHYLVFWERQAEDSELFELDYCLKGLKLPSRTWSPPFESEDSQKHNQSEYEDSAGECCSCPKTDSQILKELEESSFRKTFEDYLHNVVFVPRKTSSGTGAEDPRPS
Sequence of Insulin receptor (P06213 763-1382 limits assumed): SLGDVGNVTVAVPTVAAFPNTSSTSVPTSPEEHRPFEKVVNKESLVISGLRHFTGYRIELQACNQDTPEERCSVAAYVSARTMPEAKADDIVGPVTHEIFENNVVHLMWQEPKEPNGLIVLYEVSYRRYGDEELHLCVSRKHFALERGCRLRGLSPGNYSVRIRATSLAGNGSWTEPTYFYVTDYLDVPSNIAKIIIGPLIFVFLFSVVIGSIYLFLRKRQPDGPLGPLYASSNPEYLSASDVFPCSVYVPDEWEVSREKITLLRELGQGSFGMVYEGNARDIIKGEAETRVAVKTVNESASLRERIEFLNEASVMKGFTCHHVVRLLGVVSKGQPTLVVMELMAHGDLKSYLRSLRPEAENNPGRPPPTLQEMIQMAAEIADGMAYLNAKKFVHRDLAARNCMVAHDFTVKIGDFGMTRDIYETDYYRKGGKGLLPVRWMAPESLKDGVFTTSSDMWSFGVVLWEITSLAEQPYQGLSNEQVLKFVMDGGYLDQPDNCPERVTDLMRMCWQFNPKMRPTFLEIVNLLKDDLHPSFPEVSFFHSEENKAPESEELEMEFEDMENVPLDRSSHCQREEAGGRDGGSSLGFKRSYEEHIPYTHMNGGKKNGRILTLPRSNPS
Sequence of Protein-tyrosine kinase 6 (Q13882 whole entry): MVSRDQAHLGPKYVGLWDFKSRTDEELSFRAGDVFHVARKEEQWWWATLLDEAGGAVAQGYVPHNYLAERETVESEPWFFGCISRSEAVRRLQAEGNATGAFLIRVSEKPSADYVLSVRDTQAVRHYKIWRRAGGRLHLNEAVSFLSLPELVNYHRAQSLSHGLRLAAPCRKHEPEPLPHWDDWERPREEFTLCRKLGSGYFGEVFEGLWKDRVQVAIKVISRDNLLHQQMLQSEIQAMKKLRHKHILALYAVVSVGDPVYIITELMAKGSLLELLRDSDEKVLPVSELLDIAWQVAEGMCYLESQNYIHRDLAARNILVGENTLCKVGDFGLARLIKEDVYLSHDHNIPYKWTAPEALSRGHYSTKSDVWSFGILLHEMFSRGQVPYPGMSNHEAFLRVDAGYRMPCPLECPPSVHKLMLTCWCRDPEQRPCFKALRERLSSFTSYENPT
Sequence of Serine/threonine-protein kinase Chk2 (O96017 whole entry): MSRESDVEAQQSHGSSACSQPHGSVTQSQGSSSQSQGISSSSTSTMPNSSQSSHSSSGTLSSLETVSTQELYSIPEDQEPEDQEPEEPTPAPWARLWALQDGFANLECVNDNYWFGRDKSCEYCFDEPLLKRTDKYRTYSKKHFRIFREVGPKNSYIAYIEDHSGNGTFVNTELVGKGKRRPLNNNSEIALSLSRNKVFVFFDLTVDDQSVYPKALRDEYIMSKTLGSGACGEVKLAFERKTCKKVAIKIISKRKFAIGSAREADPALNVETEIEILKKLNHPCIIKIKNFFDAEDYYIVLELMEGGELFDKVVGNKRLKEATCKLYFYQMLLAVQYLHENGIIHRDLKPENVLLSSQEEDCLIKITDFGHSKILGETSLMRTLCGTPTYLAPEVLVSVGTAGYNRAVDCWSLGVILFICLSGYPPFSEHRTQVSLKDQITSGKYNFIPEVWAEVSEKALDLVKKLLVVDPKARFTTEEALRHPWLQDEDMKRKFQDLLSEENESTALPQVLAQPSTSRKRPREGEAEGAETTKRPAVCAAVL
Sequence of Cyclin-dependent kinase 5 (Q00535 whole entry): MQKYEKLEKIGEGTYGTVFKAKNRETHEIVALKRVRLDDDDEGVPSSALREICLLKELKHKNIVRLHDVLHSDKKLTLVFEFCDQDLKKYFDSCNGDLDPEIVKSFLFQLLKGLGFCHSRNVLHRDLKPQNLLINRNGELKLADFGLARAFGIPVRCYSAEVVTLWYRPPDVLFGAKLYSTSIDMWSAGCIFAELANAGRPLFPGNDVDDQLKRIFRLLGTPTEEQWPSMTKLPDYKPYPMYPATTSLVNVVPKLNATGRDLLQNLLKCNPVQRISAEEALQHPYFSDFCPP
Sequence of Serine/threonine-protein kinase DCLK1 (O15075 whole entry): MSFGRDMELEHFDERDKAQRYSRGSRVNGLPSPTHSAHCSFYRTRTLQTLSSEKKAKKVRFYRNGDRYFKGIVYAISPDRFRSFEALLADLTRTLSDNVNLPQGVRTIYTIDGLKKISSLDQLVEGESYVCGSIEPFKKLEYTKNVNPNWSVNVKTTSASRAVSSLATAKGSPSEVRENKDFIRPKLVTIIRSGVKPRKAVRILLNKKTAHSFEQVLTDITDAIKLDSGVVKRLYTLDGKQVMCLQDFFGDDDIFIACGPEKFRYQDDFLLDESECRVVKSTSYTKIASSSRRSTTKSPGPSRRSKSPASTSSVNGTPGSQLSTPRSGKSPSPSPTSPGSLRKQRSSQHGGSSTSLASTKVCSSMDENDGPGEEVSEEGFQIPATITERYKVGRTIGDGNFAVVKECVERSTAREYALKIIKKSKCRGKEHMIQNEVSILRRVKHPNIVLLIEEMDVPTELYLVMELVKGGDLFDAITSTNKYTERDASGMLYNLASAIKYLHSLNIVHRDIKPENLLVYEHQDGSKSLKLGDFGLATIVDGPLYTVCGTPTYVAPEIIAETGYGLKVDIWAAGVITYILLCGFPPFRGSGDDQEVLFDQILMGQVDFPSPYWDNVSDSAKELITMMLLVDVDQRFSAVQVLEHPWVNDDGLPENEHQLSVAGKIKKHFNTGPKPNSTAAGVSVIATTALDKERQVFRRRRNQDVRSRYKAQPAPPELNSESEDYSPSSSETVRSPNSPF
Sequence of Calcium/calmodulin-dependent protein kinase type 1 (Q14012 whole entry): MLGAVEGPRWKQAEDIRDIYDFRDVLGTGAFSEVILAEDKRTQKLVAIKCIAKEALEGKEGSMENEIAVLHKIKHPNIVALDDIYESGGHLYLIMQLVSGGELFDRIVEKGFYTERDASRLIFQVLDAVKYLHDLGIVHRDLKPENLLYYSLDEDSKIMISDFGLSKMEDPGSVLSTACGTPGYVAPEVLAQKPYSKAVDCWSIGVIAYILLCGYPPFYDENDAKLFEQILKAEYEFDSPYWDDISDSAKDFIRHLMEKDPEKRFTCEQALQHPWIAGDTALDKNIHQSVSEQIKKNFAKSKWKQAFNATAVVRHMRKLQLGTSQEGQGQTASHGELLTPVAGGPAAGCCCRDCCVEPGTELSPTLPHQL

As to `Cc1ccc(C(=O)NC2(O)C(=O)c3ccccc3C2=O)cc1C`, the IC50 in [1] is 5.71 µM (active); in [2] it was > 0.828 µM (active); in test [3], 0.87 µM (active); in test [4], > 100 µM (inactive).
Take `O=[N+]([O-])c1c(Nc2ccccn2)cc(Cl)c2nonc12`: in [5], the half-maximal cytotoxic concentration (CC50) was 16.8 µM (active). Besides, the results for the EC50 in [6] and in [7] were 2.43 µM (active) and > 112 µM (not active), respectively.
In the case of `CC[C@@H](C)[C@H](CNC)NC[C@@H](Cc1cccc2ccccc12)NCCc1cccc(C(F)(F)F)c1`, the half-maximal effective concentration (EC50) in [8] was > 120 µM (not active).
As to `Cc1ccc(S(=O)(=O)/N=C2\C=C(Nc3cccc(C(=O)O)c3)C(=O)c3ccccc32)cc1`, the EC50 in [9] was 47.3 µM (active). The IC50 in [10] is 42.4 µM (inactive).
With `CC(C)(CO)CNc1nccc(-c2c(-c3ccc(F)cc3)nc3c(CC4CC4)nccn23)n1`, the Ki in [11] is > 3.98 µM (inactive); in test [12] it was > 10 µM (inactive); in test [13], > 1.58 µM (inactive); in test [14], > 2.51 µM (inactive); in test [15] it was > 5.01 µM (inactive); in test [16], > 10 µM (inactive). Moreover, the Ki was > 0.631 µM (inactive) in test [17]; > 10 µM (inactive) in test [18]; > 3.16 µM (inactive) in test [19]; > 7.94 µM (inactive) in test [20]; > 5.01 µM (inactive) in test [21]; > 2.51 µM (inactive) in test [22]. For the same compound, the Ki in [23] is > 10 µM (inactive); in test [24], > 1.58 µM (inactive); in test [25], > 10 µM (inactive); in [26], > 7.94 µM (inactive); in [27], > 5.01 µM (inactive); in [28] it was > 7.94 µM (inactive). Also, the Ki was > 1.58 µM (inactive) in test [29], > 7.94 µM (inactive) in test [30], > 1.58 µM (inactive) in test [31] and > 10 µM (inactive) in [32].

In general, IC50 refers to the midpoint of a concentration-inhibition curve. The CC50 is the concentration giving 50% cytotoxicity. One may read the EC50 as the concentration at which the effect is half-maximal. As a reminder, the Ki is a dissociation constant, usually derived from enzyme kinetics or from competition with a known ligand.
